The source of these data is PubChem BioAssay AID248 (DTP/NCI, 2004).

Several values for one entry are separate records, joined by “and”; a condition that tells them apart may be missing. Equal entries are not always repeated. Toxic doses and inconclusive results are not listed.

The subject of this assay is L1210 leukemia ip in BDF1 mice, survival T/C. The experiment in a line: NCI In Vivo Anticancer Drug Screen. Data for tumor model L1210 Leukemia (intraperitoneal) in B6D2F1 (BDF1) mice. The conditions noted are these: endpoint: mean survival time, higher = longer survival. Summed up:
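In this screen, tumor-bearing mice given compound are compared to those given vehicle, and their survival values are reported as a treated-to-control quotient.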

[1] abbreviates: dose: 100.0 mg/kg/injection, schedule: Q01DX001 (ip), vehicle: saline.
Where [2] appears, read: dose: 200.0 mg/kg/injection, schedule: Q01DX001 (ip), vehicle: saline.
Setting [3] is: dose: 400.0 mg/kg/injection, schedule: Q01DX001 (ip), vehicle: saline.
[4] abbreviates: dose: 100.0 mg/kg/injection, schedule: Q04DX003 (ip), vehicle: saline with Tween-80.
The mark [5] stands for this setting: dose: 200.0 mg/kg/injection, schedule: Q04DX003 (ip), vehicle: saline with Tween-80.
Setting [6] is: dose: 400.0 mg/kg/injection, schedule: Q04DX003 (ip), vehicle: saline with Tween-80.
Where [7] appears, read: dose: 100.0 mg/kg/injection, schedule: Q01DX001 (ip), vehicle: carboxymethylcellulose (CMC).
[8] abbreviates: dose: 200.0 mg/kg/injection, schedule: Q01DX001 (ip), vehicle: carboxymethylcellulose (CMC).
The mark [9] stands for this setting: dose: 400.0 mg/kg/injection, schedule: Q01DX001 (ip), vehicle: carboxymethylcellulose (CMC).

With `COc1ccc(-c2nc(N)nc3c2CN(CCC(=O)O)C3=O)cc1`, the T/C is 100 % of control under setting [1], 95 % of control under setting [2] and 94 % of control under setting [3].
For the molecule `CN(C)CCCN=Cc1ccc(O)cc1O.CN(C)CCCN=Cc1ccc(O)cc1O.[Ni+2]`, the T/C by setting is: (dose: 25.0 mg/kg/injection, schedule: Q04DX003 (ip), vehicle: saline with Tween-80) 91 % of control; (dose: 50.0 mg/kg/injection, schedule: Q04DX003 (ip), vehicle: saline with Tween-80) 91 % of control; under setting [4], 89 % of control.
On to `CC(=N\O)/C(=N\O)C(=O)c1ccccc1`, for which the T/C runs as follows: (dose: 100.0 mg/kg/injection, schedule: Q01DX009 (ip), vehicle: saline with Tween-80) 110 % of control; under setting [4], 96 % of control; (dose: 200.0 mg/kg/injection, schedule: Q01DX009 (ip), vehicle: saline with Tween-80) 95 % of control; under setting [5], 101 % of control; under setting [6], 98 % of control.
In the case of `Clc1ccccc1Br`, the T/C was 104 % of control (dose: 100.0 mg/kg/injection, schedule: Q01DX007 (ip), vehicle: saline with Tween-80); 95 % of control under setting [4]; 98 % of control (dose: 200.0 mg/kg/injection, schedule: Q01DX007 (ip), vehicle: saline with Tween-80); 96 % of control under setting [5]; 96 % of control (dose: 400.0 mg/kg/injection, schedule: Q01DX007 (ip), vehicle: saline with Tween-80); 98 % of control under setting [6].
In the case of `Cc1ccc(S(=O)(=O)C(CC(=O)O)c2ccccc2)cc1` (stereo not given), the T/C by setting is: under setting [7], 88 % of control; under setting [8], 93 % of control; under setting [9], 98 % of control.
For the molecule `O=C(NC(CSSCC(NC(=O)OCc1ccccc1)C(=O)O)C(=O)O)OCc1ccccc1` (stereo not given), the T/C is, setting by setting: (dose: 85.0 mg/kg/injection, schedule: Q01DX009 (ip), vehicle: other) 98 % of control; (dose: 100.0 mg/kg/injection, schedule: Q01DX009 (ip), vehicle: saline) 94 % of control and 98 % of control; (dose: 100.0 mg/kg/injection, schedule: Q04DX003 (ip), vehicle: other) 98 % of control; (dose: 100.0 mg/kg/injection, schedule: Q04DX003 (ip), vehicle: saline) 90 % of control; (dose: 135.0 mg/kg/injection, schedule: Q01DX009 (ip), vehicle: other) 88 % of control; (dose: 200.0 mg/kg/injection, schedule: Q01DX009 (ip), vehicle: other) 97 % of control. Moreover, the T/C by setting is: (dose: 200.0 mg/kg/injection, schedule: Q01DX009 (ip), vehicle: saline) 118 % of control and 92 % of control; (dose: 200.0 mg/kg/injection, schedule: Q04DX003 (ip), vehicle: other) 88 % of control; (dose: 200.0 mg/kg/injection, schedule: Q04DX003 (ip), vehicle: saline) 102 % of control; (dose: 300.0 mg/kg/injection, schedule: Q01DX009 (ip), vehicle: other) 99 % of control; (dose: 400.0 mg/kg/injection, schedule: Q01DX009 (ip), vehicle: saline) 94 % of control and 104 % of control; (dose: 400.0 mg/kg/injection, schedule: Q04DX003 (ip), vehicle: other) 96 % of control. Also, the T/C (dose: 400.0 mg/kg/injection, schedule: Q04DX003 (ip), vehicle: saline) is 101 % of control.
On to `O=C(C#Cc1ccccc1)Nc1ccccc1`, for which the T/C runs as follows: (dose: 100.0 mg/kg/injection, schedule: Q04DX003 (ip), vehicle: Klucel (hydroxypropylcellulose) (HPC)) 114 % of control; (dose: 200.0 mg/kg/injection, schedule: Q04DX003 (ip), vehicle: Klucel (hydroxypropylcellulose) (HPC)) 97 % of control; (dose: 400.0 mg/kg/injection, schedule: Q04DX003 (ip), vehicle: Klucel (hydroxypropylcellulose) (HPC)) 98 % of control.
As for `CCC1(CC)C2=CCC3C(CCC4(C)C(C(C)CCCC(C)C)CCC34)C2(C)CCC1OC(C)=O` (stereo not given), the T/C was 90 % of control (dose: 50.0 mg/kg/injection, schedule: Q01DX009 (sc), vehicle: steriod suspending solution); 87 % of control (dose: 100.0 mg/kg/injection, schedule: Q01DX009 (sc), vehicle: steriod suspending solution); 107 % of control (dose: 100.0 mg/kg/injection, schedule: Q04DX003 (sc), vehicle: steriod suspending solution); 100 % of control (dose: 200.0 mg/kg/injection, schedule: Q01DX009 (sc), vehicle: steriod suspending solution); 86 % of control (dose: 200.0 mg/kg/injection, schedule: Q04DX003 (sc), vehicle: steriod suspending solution); 96 % of control (dose: 400.0 mg/kg/injection, schedule: Q04DX003 (sc), vehicle: steriod suspending solution).
In the case of `O=C1c2cc(Br)ccc2-c2c(Cl)cc(Br)cc21`, the T/C was 105 % of control under setting [7], 97 % of control under setting [8] and 105 % of control under setting [9].
For the molecule `NNC(=O)CNc1ccc(Cl)cc1`, the T/C is 98 % of control (dose: 25.0 mg/kg/injection, schedule: Q04DX002 (ip), vehicle: Klucel (hydroxypropylcellulose) (HPC)); 106 % of control (dose: 50.0 mg/kg/injection, schedule: Q04DX002 (ip), vehicle: Klucel (hydroxypropylcellulose) (HPC)); 98 % of control and 123 % of control (dose: 100.0 mg/kg/injection, schedule: Q04DX002 (ip), vehicle: Klucel (hydroxypropylcellulose) (HPC)).
As for `CC(=O)Oc1c(F)c(F)c(F)c(F)c1F`, the T/C reads like this: (dose: 25.0 mg/kg/injection, schedule: Q04DX002 (ip), vehicle: saline with Tween-80) 87 % of control; (dose: 50.0 mg/kg/injection, schedule: Q04DX002 (ip), vehicle: saline with Tween-80) 90 % of control; (dose: 100.0 mg/kg/injection, schedule: Q04DX002 (ip), vehicle: saline with Tween-80) 93 % of control.
As for `CCCCCCCCN(c1ccc(C(=O)NC(CCC(=O)OCC)C(=O)OCC)cc1)S(=O)(=O)c1ccc(C)cc1` (stereo not given), the T/C (dose: 12.5 mg/kg/injection, schedule: Q01DX009 (ip), vehicle: saline with Tween-80) was 95 % of control; the T/C (dose: 25.0 mg/kg/injection, schedule: Q01DX009 (ip), vehicle: saline with Tween-80) was 95 % of control; the T/C (dose: 50.0 mg/kg/injection, schedule: Q01DX009 (ip), vehicle: saline with Tween-80) was 95 % of control.
With `ONc1nc(NO)c2[nH]cnc2n1`, the T/C was 109 % of control (dose: 0.25 mg/kg/injection, schedule: Q01DX009 (ip), vehicle: other); 115 % of control (dose: 1.2 mg/kg/injection, schedule: Q01DX009 (ip), vehicle: carboxymethylcellulose (CMC)); 165 % of control (dose: 2.5 mg/kg/injection, schedule: Q01DX009 (ip), vehicle: other); 150 % of control (dose: 3.7 mg/kg/injection, schedule: Q01DX009 (ip), vehicle: carboxymethylcellulose (CMC)); 202 % of control (dose: 5.0 mg/kg/injection, schedule: Q01DX009 (ip), vehicle: other); 210 % of control (dose: 10.0 mg/kg/injection, schedule: Q01DX009 (ip), vehicle: other). In addition, the T/C runs as follows: (dose: 10.5 mg/kg/injection, schedule: Q01DX009 (ip), vehicle: other) 203 % of control; (dose: 18.0 mg/kg/injection, schedule: Q01DX009 (ip), vehicle: other) 265 % of control; (dose: 18.7 mg/kg/injection, schedule: Q01DX009 (oral), vehicle: carboxymethylcellulose (CMC)) 114 % of control; (dose: 30.0 mg/kg/injection, schedule: Q01DX009 (ip), vehicle: carboxymethylcellulose (CMC)) 150 % of control; (dose: 30.0 mg/kg/injection, schedule: Q01DX009 (ip), vehicle: other) 192 % of control; (dose: 44.0 mg/kg/injection, schedule: Q01DX001 (ip), vehicle: carboxymethylcellulose (CMC)) 154 % of control. Also, the T/C reads like this: (dose: 60.0 mg/kg/injection, schedule: Q01DX009 (ip), vehicle: carboxymethylcellulose (CMC)) 150 % of control and 153 % of control; (dose: 66.0 mg/kg/injection, schedule: Q01DX001 (ip), vehicle: carboxymethylcellulose (CMC)) 172 % of control; (dose: 75.0 mg/kg/injection, schedule: Q01DX009 (oral), vehicle: carboxymethylcellulose (CMC)) 122 % of control; under setting [7], 175 % of control; (dose: 150.0 mg/kg/injection, schedule: Q01DX001 (ip), vehicle: carboxymethylcellulose (CMC)) 214 % of control.
Consider `O=c1c(=NNc2ccccc2)c(=O)c2ccccc12`, for which the T/C was 94 % of control (dose: 50.0 mg/kg/injection, schedule: Q01DX001 (ip), vehicle: saline); 94 % of control under setting [1]; 88 % of control under setting [2]; 102 % of control under setting [3].
